# Key:
# Format in all cases: cell-based
# black mold = assay: “Mold” procedure, black mold
# Protocol: (§1) In the present example, cultures of various microorganisms native to actual process brines used in cheese manufacture were obtained from a cheese plant. The cultures of yeast, mold, and coliforms were grown and used to test the efficacy of various antimicrobial additives in blue cheese brines. Organism cultures included four different types of yeast (three distinct while yeast cultures and a pink yeast), a black mold culture, a coliform culture, a culture of mixed green mold and yeast that were not separated, and a culture that was identified by the cheese plant as heterofermentative lactic acid bacteria, although no actual identification of the strain was carried out.
# (§2) “Mold” Procedure: • 1. From refrigerated stock mold cultures, take 1 ml from black mold dilution bottle added to 99 ml of cold Butterfield's Phosphate Buffered Water (PBW) to obtain 10^5 cfu/ml. • 2. Take 1 ml from green mold/white yeast mixture dilution bottle added to 99 ml of cold Butterfield's Phosphate Buffered Water (PBW) to obtain 10^6 cfu/ml. • 3. Plate serial dilutions of the cultures to get the starting count of the inoculum on Dichloran-Rose Bengal-Chloramphenicol Agar (DRBC). • 4. Add 1 ml of the diluted mold culture to 100 ml of cold test solution (do separately for each of the two mold cultures). • 5. Determine the population at time 0 and 4 hours. Spread plate serial dilutions to DRBC agar. • 6. Incubate the test solutions at 10° C.+/−2° C. for the duration of the experiment. • 7. Incubate the plates at 20° C.+/−2° C. for 5 days+/−2 hours. • 8. Count representative colonies and multiply by the dilution factor. Note: For black mold, each test solution should contain ˜10^3 cfu/ml. For green mold/white yeast mixture, each test solution should contain ˜10^4 cfu/ml.
# [1] = tested on: yeast cocktail (Raised, Rough and Flat white yeast and a pink yeast); assay: “Yeast” procedure, yeast cocktail
# Source text: as §1, with “The cultures of yeast, mold, and coliforms were grown and used to test the efficacy of various antimicrobial additives in blue cheese brines.” left out
# (§3) “Yeast” Procedure: • 1. Inoculate a separate tube containing 10 ml of Brain Heart Infusion (BHI) broth for each wild type (Raised, Rough and Flat white yeast along with a single pink yeast). Incubate for 5 days at 26° C.+/−2° C. • 2. Assume growth to be 10^7 cfu/ml. Since 4 cultures are being used, combine 2.75 ml of each culture added to 99 ml of cold Butterfield's Phosphate Buffered Water (PBW) to obtain 10^6 cfu/ml of yeast cocktail. • 3. Plate serial dilutions of the culture to get the starting count of the inoculum on Dichloran-Rose Bengal-Chloramphenicol Agar (DRBC). • 4. Add 1 ml of the diluted cocktail to 100 ml of cold test solution. • 5. Determine the population at time 0 and 4 hours. Spread plate serial dilutions to DRBC agar. • 6. Incubate the test solutions at 10° C.+/−2° C. for the duration of the experiment. • 7. Incubate the plates at 20° C.+/−2° C. for 5 days+/−2 hours. • 8. Count representative colonies and multiply by the dilution factor. Note: Each test solution should contain ˜10^4 cfu/ml.
# (§4) The brines were treated with different concentrations of octanoic acid and then challenged with a yeast cocktail (which included the pink and 3 different white mold types), the green mold+yeast combination, and coliforms.
# [2] = tested on: wild type coliforms from cheese plant brine; assay: Coliforms procedure in cheese brine or buffered solution
# [3] = tested on: wild type coliforms from cheese plant brine; assay: as above; remark: listed apart in the source
# Protocol: as §1
# Coliforms Procedure: • 1. Inoculate a separate tube containing 10 ml of Brain Heart Infusion (BHI) broth for each wild type coliforms 1 and 2. Incubate for 24+/−2 hours at 35° C.+/−2° C. • 2. Assume growth to be 10^9 cfu/ml. Since two cultures are being used, combine 5.5 ml of each culture added to 99 ml of cold Butterfield's Phosphate Buffered Water (PBW) to obtain 10^8 cfu/ml. • 3. Plate serial ten-fold dilutions of the culture to get the starting count of the inoculum on Violet Red Bile Agar (VRBA). • 4. Add 1 ml of the diluted cocktail to 100 ml of cold test solution. • 5. Determine the population at time 0 and 4 hours by plating serial dilutions to VRBA spread plates. • 6. Incubate the test solutions at 10° C.+/−2° C. for the duration of the experiment. • 7. Incubate the plates at 20° C.+/−2° C. for 72+/−2 hours. • 8. Count representative colonies and multiply by the dilution factor. Note: Each test solution should contain ˜10^8 cfu/ml.
# as §4
# White Yeast = assay: Yeast challenge, white yeast; conditions: after 4 hours in mozzarella cheese brine; Table 19
# Protocol: as §3
# (§5) In order to determine if the effect of the additive was repeatable, more challenge tests were run on samples of process brine. […] In this test the solutions were challenged with two distinct yeast (a white and a pink) types and coliforms from the samples sent by the cheese plant.
# Pink Yeast = assay: Yeast challenge, pink yeast; conditions: after 4 hours in mozzarella cheese brine; Table 19
# Protocol: as §3, §5
# [4] = tested on: green mold/white yeast mixture; assay: “Mold” procedure, green mold/white yeast mixture; conditions: 500 ppm in mozzarella brine
# Protocol: as §1, §2
# Screening tests identified octanoic acid as a promising antimicrobial additive for salt brines. Table 16 gives results of a challenge test run on actual blue cheese and mozzarella process brine samples sent from a cheese plant. The brines were treated with different concentrations of octanoic acid and then challenged with a yeast cocktail (which included the pink and 3 different white mold types), the green mold+yeast combination, and coliforms. […] The plate counts listed parenthetically as (est) were too numerous to count and were estimated.
# L. monocytogenes biofilm = assay: L. mono biofilm challenge in hot dog plant chill brine at −20° C.; conditions: for L. mono biofilm count, 1 hour: 1 hour at −20° C.; for L. mono biofilm count, 1 hour / L. mono biofilm count, 24 hours: hot dog plant chill brine with cooked turkey added; for L. mono biofilm count, 24 hours: 24 hours at −20° C.
# Protocol: Biofilms can provide a haven for pathogens, increasing their resistance to antimicrobial treatments, and thereby providing another possible source of food contamination. Tests were run to see if some embodiments were effective against a L. monocytogenes biofilm. Challenge tests were run according to the procedure below. Test solutions were prepared from a sample of hot dog plant chill brine which was treated with various levels of the alcohol ethoxylate surfactant. Cooked turkey was added to the test solution before inoculation to simulate a worst case “dirty” brine with a high degree of organic load.
# 1. Inoculate five cultures, L. monocytogenes H2446 (CDC Global Standard), Scott A-serotype 4b, 12243-serotype 1/2a, WP1 and WP4 in 10 ml Brain Heart Infusion broth (BHI). Incubate the tubes for 7 days at 10° C.+/−2° C. 2. Aseptically dispense 50 ml of sterile Tryptic Soy Broth (TSB)+0.6% Yeast Extract (YE) into sterile disposable 50 ml conical shaped plastic tubes. Make enough tubes for each time point. 3. Aseptically drop one coupon into the broth in each tube. 4. Make a cocktail of the five cultures and add 0.1 ml into each tube. Incubate the tubes for 7 days at 7° C.+/−2° C. 5. Dispense 40 ml of antimicrobial salt solutions containing sterile phosphate buffer into 50 ml plastic tubes. 6. After biofilm has grown, aseptically remove coupon and rinse each side for 5 seconds with sterile distilled water to remove unattached cells. 7. Aseptically drop each rinsed coupon into the antimicrobial salt solution tube and incubate for appropriate time (1 hour and 24 hour) at −20° C.+/−2° C. 8. Aseptically add 45 ml of sterile phosphate buffer (PBW) to 50 ml conical shaped plastic tubes along with 10 sterile glass beads. 9. After incubate time is complete, aseptically move the coupon from the antimicrobial salt solution to the sterile (PBW) solution containing beads. 10. Shake the tube with glass beads for about 2 minutes to remove attached cells. 11. Plate the cells in the PBW solution on TSA+0.6% YE using appropriate dilutions and incubate at 20° C. for 72+/−2 hours. 12. Plate the antimicrobial salt solution on TSA+0.6% YE using appropriate *dilutions and incubate 20° C. for 72+/−2 hours. *Please make note: The first dilution should take place in 9 ml DE Neutralizing Buffer. After incubation, count typical colonies and record results to cfu/g.
# L. monocytogenes [5] = assay: L. monocytogenes cocktail challenge of surfactant/salt solutions at 2° C.; conditions: after 4 hours in solution at 2° C.; Table 2, different salts and salt concentrations
# Protocol: Tests were generally run according to the following procedure:
# (§6) 1. Inoculate a separate tube containing approximately 10 ml of Brain Heart infusion (BHI) broth with the following L. monocytogenes strains: H2446 (CDC Global Standard), Scott A (serotype 4b), 12243 (serotype 1/2a), and two strains isolated from the environment of a cooked meat and poultry facility, designated WP1, and WP4. Incubate the tubes at least 5 days at 7-10° C.+/−2° C. 2. Assume the growth to be 10^9 cfu/ml. Serially dilute each culture in cold (˜7° C.). Butterfield's Phosphate Buffered Water (PBW) to 10^8 cfu/ml (1:10). Since five cultures of L. monocytogenes are being used as a cocktail, begin the dilution series using 2.20 ml of each culture added to 99 ml of PBW. 3. Plate (−6, −7, −8) the diluted culture to get the starting count of the inoculum on Modified Oxford medium (MOX) using a thin agar overlay (TAL) technique (overlay with Trypticase Soy Agar [TSA]) to revive injured cells. 4. Add 1 ml of the diluted cocktail to 100 ml of cold test solution. 5. Mix the solutions well. 6. Determine the L. monocytogenes population at time 0 and 4 hours. Plate −1 (0.1 ml on 1 plate), −2, −3, and −4 dilutions using spread plates on MOX TAL with TSA. 7. Incubate the test solutions at test temperature for the duration of the experiment. 8. Incubate the MOX TAL with TSA plates at 20° C.+/−2° C. for 72+/−3 hours. Count representative colonies, which are black, and multiply by the dilution factor.
# [6] = tested on: Uncharacterized microorganisms cultured from raw ground beef; assay: Total plate count challenge of 24% NaCl brine with ground beef organisms; conditions: after 4 hours in 24% NaCl brine at −5° C.
# Protocol: Tests were run to determine the effectiveness of formulas against organisms other than L. monocytogenes. […] The test solutions were inoculated with the ground beef organism culture and incubated for 4 hours at −5° C. before plating.
# L. monocytogenes [7] = assay: L. monocytogenes challenge in beef plant chill brine at 4° C.; conditions: after 4 hours at 4° C.; surfactant added to beef plant brine, approximately 17% sodium chloride
# Protocol: as §6
# Several tests were carried out to determine the effectiveness of embodiments according to the invention in meat processing chill brines. In one experiment, brine was taken at the end of a production week from a brine chiller used in a ready to eat, cooked beef production line. The sodium chloride concentration in this brine was approximately 17%. Samples of the brine with and without added surfactant were inoculated with a cocktail of L. monocytogenes as per the procedure described above, incubated at 4° C. for four hours, and then plated to determine L. monocytogenes survival.
# [8] = after 4 hours in buffer of 375 ppm acetic acid and 525 ppm sodium acetate, pH 4.74
# [9] = after 4 hours in blue cheese brine taken before or after brining cheese wheels, Table 22
# [10] = about 250 ppm in blue cheese brine
compound,measurement,setting,value
"[Cl-].[Na+] [24% NaCl, sodium chloride, reference compound]",Black Mold count,black mold; [8],660 cfu/mL
same,Yeast Cocktail count,[1]; [8],"6,600 cfu/mL"
same,Coliform count,[2]; [8],"11,000 cfu/mL"
"CCCCCCCC(=O)[O-].[Na+] [35 ppm Na Octanoate, sodium octanoate]",Black Mold count,black mold; [8],710 cfu/mL
same,Yeast Cocktail count,[1]; [8],"9,000 cfu/mL"
same,Coliform count,[2]; [8],"7,000 cfu/mL"
"CCCCCCCC(=O)[O-].[Na+] [70 ppm Na Octanoate, sodium octanoate]",Black Mold count,black mold; [8],510 cfu/mL
same,Yeast Cocktail count,[1]; [8],"7,500 cfu/mL"
same,Coliform count,[2]; [8],"12,000 cfu/mL"
"CCCCCCCC(=O)[O-].[Na+] [140 ppm Na Octanoate, sodium octanoate]",Black Mold count,black mold; [8],630 cfu/mL
same,Yeast Cocktail count,[1]; [8],"10,000 cfu/mL"
same,Coliform count,[2]; [8],"7,700 cfu/mL"
"CCCCCCCC(=O)O [250 ppm octanoic acid (after cheese), octanoic acid]",Coliform count,[3]; [9],<10 cfu/mL
same,Black Mold count,black mold; [9],<10 cfu/mL
same,Yeast Cocktail count,[1]; [9],<10 cfu/mL
"CCCCCCCC(=O)O [1250 ppm octanoic acid, octanoic acid]",White Yeast count,White Yeast,<10 cfu/mL
same,Pink Yeast count,Pink Yeast,<10 cfu/mL
same,Coliform count,"[2]; after 4 hours in mozzarella cheese brine, Table 19",1.2 × 10^3 cfu/mL
"CCCCCCCC(=O)O [octanoic acid, octanoic (caprylic) acid]",log kill of coliform,[3]; [10],~3 log
same,log reduction in the yeast+mold count,[4],2 log
same,log kill of mold,black mold; [10],~3 log
same,log kill of one of the yeast cultures,[1]; 250 ppm in mozzarella brine (so in the source),> 3.76 log
same,log kill of yeast,[1]; [10],~3 log
same,log reduction in the coliform count,[2]; 500 ppm in mozzarella brine,2 log
same,log kill of coliforms,"[2]; mozzarella brine, Table 19",~2 log
alcohol ethoxylate [15 ppm alcohol ethoxylate],"L. mono biofilm count, 1 hour",L. monocytogenes biofilm,"5,000 cfu/coupon"
same,"L. mono biofilm count, 24 hours",L. monocytogenes biofilm,5600 cfu/coupon
alcohol ethoxylate [25 ppm alcohol ethoxylate],"L. mono biofilm count, 1 hour",L. monocytogenes biofilm,3500 cfu/coupon
same,"L. mono biofilm count, 24 hours",L. monocytogenes biofilm,250 cfu/coupon
alcohol ethoxylate [50 ppm alcohol ethoxylate],"L. mono biofilm count, 1 hour",L. monocytogenes biofilm,10-100 cfu/coupon
same,"L. mono biofilm count, 24 hours",L. monocytogenes biofilm,<10 cfu/coupon
same,log kill of the biofilm within 1 hour,"L. monocytogenes biofilm; very “dirty” brine, −20° C., 1 hour",> 2 log
same,log kill of the biofilm after 24 hours,"L. monocytogenes biofilm; very “dirty” brine, −20° C., 24 hours",> 3 log
same,L. mono count,L. monocytogenes [5],1.9 × 10^5 cfu/mL
alcohol ethoxylate [800 ppm alcohol ethoxylate],Total plate count,[6],<10 cfu/mL
"decyl alcohol ethoxylate, POE-6 [800 ppm decyl alcohol ethoxylate, POE-6]",Total plate count,[6],10 cfu/mL
nonylphenolethoxylate [800 ppm nonylphenolethoxylate],Total plate count,[6],40 cfu/mL
sodium linear alkylbenzene sulfonate,Total plate count,[6],<10 cfu/mL
sodium olefin sulfonate [50 ppm sodium olefin sulfonate],L. mono count,L. monocytogenes [7],10 cfu/mL
same,L. mono count,L. monocytogenes [5],1.8 × 10^5 cfu/mL
